From patent US11566007B2, “Ras inhibitors” (Revolution Medicines, Inc., priority 2019, dated 2023)

What was measured:
[1] = system: NCI-H358 cells (K-Ras G12C); assay: Potency assay: pERK in NCI-H358 cells; assay type: cell-based, human; conditions: Homo sapiens, NCI-H358; H358 KRAS G12C; read-out: pERK EC50
Summary of the method: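 Compounds are dosed as ten 3-fold dilutions from a 10 mM DMSO stock, in duplicate, and left on cells for 4 h at 37 °C, 5% CO2. Phospho-ERK1/2 is then quantified by AlphaLISA SureFire Ultra or In-Cell Western, and IC50 is derived from a 4-parameter sigmoid against log concentration.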

NCI-H358 (K-Ras G12C) = assay: CellTiter-Glo cell viability assay, NCI-H358; assay type: cell-based, human; conditions: Homo sapiens, NCI-H358, 120 h, NCI-H358, 5-day treatment; class symbols; read-out: Additional H358 Cell Viability assay data (K-Ras G12C, IC50)
Summary of the method: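 Four-parameter logistic fits were applied to luminescence data normalized against DMSO-treated wells. Readings were taken on day 5 following direct compound addition, after roughly 30 minutes at room temperature.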

KRAS Q61H = KRAS Q61H (Homo sapiens (Human), UniProt P01116+P62937, Q61H); assay: Ras-Raf (BRAF RBD) disruption / FRET / MOA assay, KRAS Q61H; assay type: biochemical; conditions: Ras-Raf disruption/FRET/MOA assay; class symbols; read-out: KRAS Q61H FRET data IC50
KRAS Q61H, sequence (P01116-2 other isoform, or with tags, fused parts or gaps Q61H): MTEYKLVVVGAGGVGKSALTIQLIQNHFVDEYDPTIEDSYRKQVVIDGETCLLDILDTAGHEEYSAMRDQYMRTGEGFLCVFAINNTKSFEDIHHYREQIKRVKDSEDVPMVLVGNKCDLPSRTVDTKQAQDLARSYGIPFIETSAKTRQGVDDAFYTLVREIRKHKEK
KRAS Q61H, sequence (P62937 whole entry): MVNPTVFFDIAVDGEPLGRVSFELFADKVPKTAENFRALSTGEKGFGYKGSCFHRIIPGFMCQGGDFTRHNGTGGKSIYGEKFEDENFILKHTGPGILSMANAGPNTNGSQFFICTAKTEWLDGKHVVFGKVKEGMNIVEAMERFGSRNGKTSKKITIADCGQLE
Summary of the method: (§1)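 Compounds were tested as a 10-point 3-fold dilution series from 30 μM final for their ability to drive ternary complex formation between nucleotide-loaded Ras and cyclophilin A, displacing the BRAF RBD. After 3 h at 25° C., anti-His Eu-W1024 (10 nM) and anti-GST allophycocyanin (50 nM) were added for 1.5 h. A TR-FRET ratio decrease versus DMSO gave IC50.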

NRAS Q61K = NRAS Q61K (Homo sapiens (Human), UniProt P01111+P62937, Q61K); assay: Ras-Raf (BRAF RBD) disruption / FRET / MOA assay, NRAS Q61K; assay type: biochemical; conditions: NRAS Q61K; Ras-Raf disruption/FRET/MOA assay; read-out: IC50* NRAS Q61K FRET data
NRAS Q61K, sequence (P01111 whole entry Q61K): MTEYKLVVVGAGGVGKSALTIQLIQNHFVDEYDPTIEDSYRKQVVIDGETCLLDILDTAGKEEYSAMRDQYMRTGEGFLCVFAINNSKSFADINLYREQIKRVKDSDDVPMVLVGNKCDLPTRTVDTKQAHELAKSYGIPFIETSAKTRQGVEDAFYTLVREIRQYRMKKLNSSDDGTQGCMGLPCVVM
NRAS Q61K, sequence (P62937 whole entry): as the sequence (P62937 whole entry) above
Summary of the method: as §1

Row | SMILES | EC50 [1] | IC50 (NCI-H358 (K-Ras G12C)) | IC50 (KRAS Q61H) | IC50 (NRAS Q61K)
1 | CCn1c(-c2cccnc2[C@H](C)OC)c2c3cc(ccc31)-c1csc(n1)C[C@H](NC(=O)CCOC1CN(C(=O)C#CC(C)(C)N(C)C)C1)C(=O)N1CCC[C@H](N1)C(=O)OCC(C)(C)C2 (atropisomer, axis not shown) [Example A427, 3-((1-(4-(dimethylamino)-4-methylpent-2-ynoyl)azetidin-3-yl)oxy)-N-((6^3S,4S,Z)-1^1-ethyl-1^2-(2-((S)-1-methoxyethyl)pyridin-3-yl)-10,10-dimethyl-5,7-dioxo-6^1,6^2,6^3,6^4,6^5,6^6-hexahydro-1^1H-8-oxa-2(4,2)-thiazola-1(5,3)-indola-6(1,3)-pyridazinacycloundecaphane-4-yl)propanamide] | < 5000 nM | < 10 nM | 1000 to 10000 nM | 1000 to 10000 nM
2 | C=CC(=O)N1CC[C@H](C(=O)N(C)[C@H](C(=O)N[C@H]2Cc3cccc(c3)-c3ccc4c(c3)c(c(-c3cc5c(nc3[C@H](C)OC)CCN(C)C5)n4CC)CC(C)(C)COC(=O)[C@@H]3CCCN(N3)C2=O)C(C)C)C1 (atropisomer, axis not shown) [Example A461] | < 5000 nM | < 10 nM | 1000 to 10000 nM | 1000 to 10000 nM
3 | C=CC(=O)N(C)C1CN(C(=O)N(C)[C@H](C(=O)N[C@H]2Cc3nc(cs3)-c3ccc4c(c3)c(c(-c3cccnc3[C@H](C)OC)n4CC)CC(C)(C)COC(=O)[C@@H]3CCCN(N3)C2=O)C(C)C)C1 (atropisomer, axis not shown) [Example A463] | < 5000 nM | < 10 nM | 10 to 100 nM | 10 to 100 nM
4 | C=CC(=O)N1CC[C@H](C(=O)N(C)[C@H](C(=O)N[C@H]2Cc3nc(cs3)-c3ccc4c(c3)c(c(-c3cc5c(nc3[C@H](C)OC)CCN(C)C5)n4CC)CC(C)(C)COC(=O)[C@@H]3CCCN(N3)C2=O)C(C)C)C1 (atropisomer, axis not shown) [Example A472] | < 5000 nM | < 10 nM | 1000 to 10000 nM | 1000 to 10000 nM
5 | C=CC(=O)N1CC[C@H](C(=O)N(C)[C@H](C(=O)N[C@H]2Cc3cc(C)cc(c3)-c3ccc4c(c3)c(c(-c3cccnc3[C@H](C)OC)n4CC)CC(C)(C)COC(=O)[C@@H]3CCCN(N3)C2=O)C(C)C)C1 (atropisomer, axis not shown) [Example A498] | < 5000 nM | 10 to 100 nM | 1000 to 10000 nM | 1000 to 10000 nM
6 | C=CC(=O)N1CC[C@H](C(=O)N(C)[C@H](C(=O)N[C@H]2Cc3cccc(c3)-c3ccc4c(c3)c(c(-c3cccnc3[C@H](C)OC)n4CC#CC)CC(C)(C)COC(=O)[C@@H]3CCCN(N3)C2=O)C(C)C)C1 (atropisomer, axis not shown) [Example A531] | < 5000 nM | 10 to 100 nM | 1000 to 10000 nM | 1000 to 10000 nM
7 | C=CC(=O)N1CCOC2(C1)CN(C(=O)N(C)[C@H](C(=O)N[C@H]1Cc3cccc(c3)-c3ccc4c(c3)c(c(-c3cccnc3[C@H](C)OC)n4CC(F)(F)F)CC(C)(C)COC(=O)[C@@H]3CCCN(N3)C1=O)C(C)C)C2 (atropisomer, axis not shown) [Example A538] | < 5000 nM | 10 to 100 nM | 100 to 1000 nM | 100 to 1000 nM
8 | CO[C@@H](C)c1ncccc1-c1c2c3cc(ccc3n1CC(F)(F)F)-c1cccc(c1)C[C@H](NC(=O)[C@H](C(C)C)N(C)C(=O)N1CCC3(CC1)CN(C(=O)/C=C/CN(C)C)C3)C(=O)N1CCC[C@H](N1)C(=O)OCC(C)(C)C2 (atropisomer, axis not shown) [Example A555] | < 5000 nM | 10 to 100 nM | 100 to 1000 nM | 100 to 1000 nM
9 | CCn1c(-c2cccnc2[C@H](C)OC)c2c3cc(ccc31)-c1cccc(c1)C[C@H](NC(=O)[C@H](C(C)C)N1CC[C@@]3(CCN(C(=O)C#C[C@H]4COCCN4C4COC4)C3)C1=O)C(=O)N1CCC[C@H](N1)C(=O)OCC(C)(C)C2 (atropisomer, axis not shown) [Example A567] | < 5000 nM | < 10 nM | 100 to 1000 nM | 1000 to 10000 nM
10 | C=CC(=O)N1CCO[C@H]2CN(C(=O)N(C)[C@H](C(=O)N[C@H]3Cc4coc(n4)-c4ccc5c(c4)c(c(-c4cccnc4[C@H](C)OC)n5CC(F)(F)F)CC(C)(C)COC(=O)[C@@H]4CCCN(N4)C3=O)C(C)C)C[C@H]21 (atropisomer, axis not shown) [Example A574] | < 5000 nM | 10 to 100 nM | 100 to 1000 nM | 100 to 1000 nM
11 | C=CC(=O)N1C[C@@H](N(C)C(=O)N(C)[C@H](C(=O)N[C@H]2Cc3nc(cs3)-c3ccc4c(c3)c(c(-c3cccnc3[C@H](C)OC)n4CC)CC(C)(C)COC(=O)[C@@H]3CCCN(N3)C2=O)C(C)C)[C@@H](C)C1 (atropisomer, axis not shown) [Example A583] | < 5000 nM | 10 to 100 nM | 100 to 1000 nM | 100 to 1000 nM
12 | C=CC(=O)N1C[C@H](C)N(C(=O)N(C)[C@H](C(=O)N[C@H]2Cc3nc(cs3)-c3ccc4c(c3)c(c(-c3cccnc3[C@H](C)OC)n4CC)CC(C)(C)COC(=O)[C@@H]3CCCN(N3)C2=O)C(C)C)CC12CC2 (atropisomer, axis not shown) [Example A586] | < 5000 nM | 10 to 100 nM | 10 to 100 nM | 100 to 1000 nM
13 | C=CC(=O)N1C[C@@H](C)[C@H](N(C)C(=O)N(C)[C@H](C(=O)N[C@H]2Cc3nc(cs3)-c3ccc4c(c3)c(c(-c3cccnc3[C@H](C)OC)n4CC)CC(C)(C)COC(=O)[C@@H]3CCCN(N3)C2=O)C(C)C)C1 (atropisomer, axis not shown) [Example A588] | < 5000 nM | 10 to 100 nM | 100 to 1000 nM | 100 to 1000 nM
14 | C=CC(=O)Nc1cnc(OC[C@H](C(=O)N[C@H]2Cc3cccc(c3)-c3ccc4c(c3)c(c(-c3cccnc3[C@H](C)OC)n4CC)CC(C)(C)COC(=O)[C@@H]3CCCN(N3)C2=O)C(C)C)n1C (atropisomer, axis not shown) [Example A600] | < 5000 nM | < 10 nM | 100 to 1000 nM | 1000 to 10000 nM
15 | C=CC(=O)N1CCOC2(C1)CN(C(=O)N(C)[C@H](C(=O)N[C@H]1Cc3nc(cs3)-c3ccc4c(c3)c(c(-c3cccnc3[C@H](C)OC)n4CC(F)(F)F)CC(C)(C)COC(=O)[C@@H]3CCCN(N3)C1=O)C(C)C)C2 (atropisomer, axis not shown) [Example A604] | < 5000 nM | < 10 nM | 100 to 1000 nM | 100 to 1000 nM
16 | C=CC(=O)N1CCOC2(CCN(C(=O)N(C)[C@H](C(=O)N[C@H]3Cc4cc(CF)cc(c4)-c4ccc5c(c4)c(c(-c4cccnc4[C@H](C)OC)n5CC(F)(F)F)CC(C)(C)COC(=O)[C@@H]4CCCN(N4)C3=O)C(C)C)CC2)C1 (atropisomer, axis not shown) [Example A605] | < 5000 nM | 10 to 100 nM | 10 to 100 nM | 100 to 1000 nM
17 | C=CC(=O)N1CCOC2(CCN(C(=O)N(C)[C@H](C(=O)N[C@H]3Cc4cccc(c4)-c4ccc5c(c4)c(c(-c4cccnc4[C@H](C)OC)n5CC(F)(F)F)CC(C)(C)COC(=O)[C@@H]4CCCN(N4)C3=O)C(C)C)CC2)C1 (atropisomer, axis not shown) [Example A608] | < 5000 nM | 10 to 100 nM | 10 to 100 nM | 100 to 1000 nM
18 | C=CC(=O)N1CCC[C@@H]2CN(C(=O)N(C)[C@H](C(=O)N[C@H]3Cc4nc(cs4)-c4ccc5c(c4)c(c(-c4cccnc4[C@H](C)OC)n5CC)CC(C)(C)COC(=O)[C@@H]4CCCN(N4)C3=O)C(C)C)C[C@@H]21 (atropisomer, axis not shown) [Example A619] | < 5000 nM | 10 to 100 nM | 100 to 1000 nM | 100 to 1000 nM
19 | CCn1c(-c2cccnc2[C@H](C)OC)c2c3cc(ccc31)-c1csc(n1)C[C@H](NC(=O)[C@H](C(C)C)N(C)C(=O)N1CCC3(CC1)CN(C(=O)/C=C/CF)C3)C(=O)N1CCC[C@H](N1)C(=O)OCC(C)(C)C2 (atropisomer, axis not shown) [Example A622] | < 5000 nM | 10 to 100 nM | 10 to 100 nM | 10 to 100 nM
20 | CCn1c(-c2cccnc2[C@H](C)OC)c2c3cc(ccc31)-c1csc(n1)C[C@H](NC(=O)[C@@H](F)COC1CN(C(=O)C#CC(C)(C)N(C)C)C1)C(=O)N1CCC[C@H](N1)C(=O)OCC(C)(C)C2 (atropisomer, axis not shown) [Example A626] | < 5000 nM | 10 to 100 nM | 100 to 1000 nM | 1000 to 10000 nM
21 | CO[C@@H](C)c1ncccc1-c1c2c3cc(ccc3n1CC(F)(F)F)N1CCO[C@@H](C[C@H](NC(=O)[C@H](C(C)C)N3CC[C@@]4(CCN(C(=O)C#CC(C)(C)N(C)C)C4)C3=O)C(=O)N3CCC[C@H](N3)C(=O)OCC(C)(C)C2)C1 (atropisomer, axis not shown) [Example A628] | < 5000 nM | 10 to 100 nM | > 10000 nM | > 10000 nM
22 | C=CC(=O)N(C)CCN1CCN(C(=O)N(C)[C@H](C(=O)N[C@H]2Cc3nc(cs3)-c3ccc4c(c3)c(c(-c3cccnc3[C@H](C)OC)n4CC)CC(C)(C)COC(=O)[C@@H]3CCCN(N3)C2=O)C(C)C)CC1 (atropisomer, axis not shown) [Example A630] | < 5000 nM | 10 to 100 nM | 100 to 1000 nM | 100 to 1000 nM
